Assay results as given in patent US8546414B2, “Ion channel modulators and methods of use” (Vertex Pharmaceuticals Incorporated, priority 2004, dated 2013).
pIC50: −log10 of the molar value.

Key:
Format in all cases: cell-based
[1] = target: NaV1.8 (Homo sapiens, UniProt Q9Y5Y9); experiment: VIPR optical membrane potential assay, NaV1.8 (other subtypes in an analogous mode); conditions: Table 9, NaV 1.8 receptors
Experimental: Antagonist properties of test compounds were assessed as follows. Cells expressing the NaV of interest were placed into microtiter plates. After an incubation period, the cells were stained with fluorescent dyes sensitive to the transmembrane potential. The test compounds were added to the microtiter plate. The cells were stimulated with either chemical or electrical means to evoke a NaV dependent membrane potential change from unblocked channels, which was detected and measured with trans-membrane potential-sensitive dyes. Antagonists were detected as a decreased membrane potential response to the stimulus.
24 hours before the assay on VIPR, CHO cells endogenously expressing a NaV 1.2 type voltage-gated NaV are seeded in 96-well poly-lysine coated plates at 60,000 cells per well. […] Plates are incubated in the dark for 30 minutes at room temperature. • 4) While the cells are being stained with coumarin, a […] oxonol solution in BS#2 is prepared. […] As before, the residual volume should be 40 μL. • 6) Upon removing the bath, the cells are loaded with 80 μL of the DiSBAC2(3) solution, after which test compound, dissolved in DMSO, is added to achieve the desired test concentration to each well from the drug addition plate and mixed thoroughly. The volume in the well should be roughly 121 μL. The cells are then incubated for 20-30 minutes. • 7) Once the incubation is complete, the cells are ready to be assayed on VIPR® with a sodium addback protocol. 120 μL of Bath solution #1 is added to stimulate the NaV dependent depolarization. […] tetracaine was used as an antagonist positive control for block of the NaV channel. Analysis of VIPR® Data:
The following is an example of how NaV1.3 inhibition activity is measured using the optical membrane potential method#2. Other subtypes are performed in an analogous mode in a cell line expressing the NaV of interest.

[2] = target: T1, CaV2.2 (Homo sapiens, UniProt Q00975); experiment: VIPR optical membrane potential assay with electrical stimulation, CaV2.2; conditions: Table 9, CaV 2.2 receptors
T1 construct: expressed in transfected cells; host or cells: HEK293
In short: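 HEK293 cells stably expressing CaV2.2 stained with CC2-DMPE/DiSBAC2(3) voltage-sensitive dyes (10 μM final CC2-DMPE, 30 min, RT), then compound added and cells electrically stimulated for 3-5 s. Read-out: background-subtracted 460/580 nm emission ratio; response R=Rf/Ri (post- vs pre-stimulus ratio); antagonism seen as reduced response.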

[3] = target: T2, NaV1.3 (Homo sapiens, UniProt Q9NY46); experiment: VIPR optical membrane potential assay with electrical stimulation, NaV1.3; conditions: Table 9, NaV 1.3 receptors
T2 construct: expressed in transfected cells; host or cells: HEK293
T2 sequence (Q9NY46 whole entry): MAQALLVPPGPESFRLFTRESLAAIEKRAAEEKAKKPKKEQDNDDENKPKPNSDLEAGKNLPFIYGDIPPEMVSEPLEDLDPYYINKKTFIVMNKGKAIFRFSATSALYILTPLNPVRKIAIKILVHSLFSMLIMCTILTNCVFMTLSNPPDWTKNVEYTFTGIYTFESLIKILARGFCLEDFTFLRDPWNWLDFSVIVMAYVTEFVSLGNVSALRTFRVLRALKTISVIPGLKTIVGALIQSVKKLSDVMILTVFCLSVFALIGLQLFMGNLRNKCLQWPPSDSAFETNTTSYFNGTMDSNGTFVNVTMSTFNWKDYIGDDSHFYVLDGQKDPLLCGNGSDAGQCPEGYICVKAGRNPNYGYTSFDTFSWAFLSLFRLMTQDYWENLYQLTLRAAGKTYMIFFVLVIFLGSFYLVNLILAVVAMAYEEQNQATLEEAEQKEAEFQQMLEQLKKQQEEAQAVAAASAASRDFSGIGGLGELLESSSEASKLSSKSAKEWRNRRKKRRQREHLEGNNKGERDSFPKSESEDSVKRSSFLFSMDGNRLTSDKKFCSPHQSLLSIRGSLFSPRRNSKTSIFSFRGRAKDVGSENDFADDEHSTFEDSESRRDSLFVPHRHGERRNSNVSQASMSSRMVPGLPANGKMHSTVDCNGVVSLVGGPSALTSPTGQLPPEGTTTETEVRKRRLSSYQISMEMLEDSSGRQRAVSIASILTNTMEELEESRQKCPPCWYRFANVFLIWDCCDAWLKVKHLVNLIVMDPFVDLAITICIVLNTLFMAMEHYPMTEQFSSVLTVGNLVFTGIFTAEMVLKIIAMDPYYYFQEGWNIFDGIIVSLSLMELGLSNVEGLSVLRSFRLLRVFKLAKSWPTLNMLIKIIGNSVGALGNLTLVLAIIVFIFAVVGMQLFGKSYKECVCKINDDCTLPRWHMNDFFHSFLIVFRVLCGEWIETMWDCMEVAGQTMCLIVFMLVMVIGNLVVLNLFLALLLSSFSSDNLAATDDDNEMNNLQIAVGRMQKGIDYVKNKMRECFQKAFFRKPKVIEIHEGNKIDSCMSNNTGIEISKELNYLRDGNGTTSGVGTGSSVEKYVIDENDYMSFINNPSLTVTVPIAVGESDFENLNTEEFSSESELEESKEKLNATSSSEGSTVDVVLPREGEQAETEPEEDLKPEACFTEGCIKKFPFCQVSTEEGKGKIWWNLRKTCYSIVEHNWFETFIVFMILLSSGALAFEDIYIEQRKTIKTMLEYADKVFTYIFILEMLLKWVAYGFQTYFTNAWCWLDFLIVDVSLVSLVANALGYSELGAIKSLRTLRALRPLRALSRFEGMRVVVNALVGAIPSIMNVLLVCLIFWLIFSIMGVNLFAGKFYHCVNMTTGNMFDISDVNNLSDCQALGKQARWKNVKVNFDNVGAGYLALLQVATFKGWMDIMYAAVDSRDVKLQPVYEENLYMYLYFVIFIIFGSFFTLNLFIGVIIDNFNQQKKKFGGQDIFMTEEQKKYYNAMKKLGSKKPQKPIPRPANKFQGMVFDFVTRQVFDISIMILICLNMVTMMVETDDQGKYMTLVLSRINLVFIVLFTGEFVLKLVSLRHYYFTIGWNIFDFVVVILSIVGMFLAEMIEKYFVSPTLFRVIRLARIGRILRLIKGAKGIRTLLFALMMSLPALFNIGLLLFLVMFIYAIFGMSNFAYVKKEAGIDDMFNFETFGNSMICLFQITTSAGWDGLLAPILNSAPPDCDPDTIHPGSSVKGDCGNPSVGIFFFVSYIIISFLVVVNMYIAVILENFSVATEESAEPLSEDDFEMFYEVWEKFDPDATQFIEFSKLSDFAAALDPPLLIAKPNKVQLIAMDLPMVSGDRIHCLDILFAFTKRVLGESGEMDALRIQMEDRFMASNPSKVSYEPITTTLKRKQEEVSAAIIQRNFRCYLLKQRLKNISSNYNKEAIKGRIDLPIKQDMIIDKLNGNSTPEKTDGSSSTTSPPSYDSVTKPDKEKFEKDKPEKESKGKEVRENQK
In short: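 HEK293 cells stably expressing NaV1.3, stained with CC2-DMPE (10 μM final) then DiSBAC2(3) with ABSC1, 30 min each at RT; compounds added with oxonol. Electrical stimulation for 3 s; 460/580 nm background-subtracted emission ratio Rf/Ri, normalised to tetracaine (positive) and untreated (negative) controls.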

Sequence of NaV1.8 (Q9Y5Y9 whole entry): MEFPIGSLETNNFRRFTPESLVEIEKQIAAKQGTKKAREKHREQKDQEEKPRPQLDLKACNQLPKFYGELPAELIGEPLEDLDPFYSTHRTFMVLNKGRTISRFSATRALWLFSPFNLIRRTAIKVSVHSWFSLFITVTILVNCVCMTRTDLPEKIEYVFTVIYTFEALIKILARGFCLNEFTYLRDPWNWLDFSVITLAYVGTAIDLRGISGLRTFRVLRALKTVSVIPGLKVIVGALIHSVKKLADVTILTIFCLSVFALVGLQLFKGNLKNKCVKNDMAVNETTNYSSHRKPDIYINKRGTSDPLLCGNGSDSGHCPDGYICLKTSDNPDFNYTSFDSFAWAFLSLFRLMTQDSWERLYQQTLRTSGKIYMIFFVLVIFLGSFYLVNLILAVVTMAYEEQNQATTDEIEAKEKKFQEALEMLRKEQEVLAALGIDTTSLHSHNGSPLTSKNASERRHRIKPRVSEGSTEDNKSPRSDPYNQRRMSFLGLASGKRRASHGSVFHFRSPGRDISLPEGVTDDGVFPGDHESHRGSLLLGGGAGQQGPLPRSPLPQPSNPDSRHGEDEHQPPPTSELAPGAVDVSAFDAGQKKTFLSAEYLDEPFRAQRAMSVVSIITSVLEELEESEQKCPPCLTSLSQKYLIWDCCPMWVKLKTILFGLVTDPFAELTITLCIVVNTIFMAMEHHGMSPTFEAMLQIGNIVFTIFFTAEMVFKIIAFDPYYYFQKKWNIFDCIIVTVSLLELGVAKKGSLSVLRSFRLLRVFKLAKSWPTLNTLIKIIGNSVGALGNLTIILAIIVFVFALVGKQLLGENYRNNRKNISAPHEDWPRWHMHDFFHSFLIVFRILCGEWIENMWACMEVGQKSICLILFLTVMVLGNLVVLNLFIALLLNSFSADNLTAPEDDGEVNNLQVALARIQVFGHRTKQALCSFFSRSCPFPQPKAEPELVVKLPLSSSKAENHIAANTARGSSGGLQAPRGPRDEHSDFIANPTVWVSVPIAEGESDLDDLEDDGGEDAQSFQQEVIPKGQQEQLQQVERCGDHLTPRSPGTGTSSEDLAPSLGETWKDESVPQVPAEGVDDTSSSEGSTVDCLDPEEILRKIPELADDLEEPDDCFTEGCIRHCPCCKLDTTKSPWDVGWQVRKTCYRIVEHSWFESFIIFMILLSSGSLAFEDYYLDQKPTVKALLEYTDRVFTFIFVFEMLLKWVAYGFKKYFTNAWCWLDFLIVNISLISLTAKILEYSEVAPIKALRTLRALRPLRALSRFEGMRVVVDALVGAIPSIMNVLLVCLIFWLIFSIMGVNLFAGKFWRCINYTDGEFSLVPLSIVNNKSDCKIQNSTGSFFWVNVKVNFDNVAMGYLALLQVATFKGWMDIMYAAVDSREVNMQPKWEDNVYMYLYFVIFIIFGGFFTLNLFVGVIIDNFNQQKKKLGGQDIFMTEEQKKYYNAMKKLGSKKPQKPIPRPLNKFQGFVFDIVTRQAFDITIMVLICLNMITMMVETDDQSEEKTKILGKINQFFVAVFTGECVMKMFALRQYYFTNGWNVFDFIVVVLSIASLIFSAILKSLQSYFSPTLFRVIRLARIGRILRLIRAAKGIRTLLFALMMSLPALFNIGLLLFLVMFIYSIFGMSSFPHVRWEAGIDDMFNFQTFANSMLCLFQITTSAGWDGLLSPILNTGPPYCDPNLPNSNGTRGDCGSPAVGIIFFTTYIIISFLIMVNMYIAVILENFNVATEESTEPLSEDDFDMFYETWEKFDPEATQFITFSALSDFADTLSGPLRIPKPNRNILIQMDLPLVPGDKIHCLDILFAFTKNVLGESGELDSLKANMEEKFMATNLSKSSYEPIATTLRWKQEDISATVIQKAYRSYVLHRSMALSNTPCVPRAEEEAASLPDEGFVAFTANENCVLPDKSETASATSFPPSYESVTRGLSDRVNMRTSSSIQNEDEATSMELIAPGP

| pIC50 [1] | pIC50 [2] | pIC50 [3] | Structure (SMILES) |
| --- | --- | --- | --- |
| < 5.00 | 5.00 to 5.70 | 5.00 to 5.70 | O=C(c1cnc(N2CCOCC2)nc1-c1ccccc1F)N(Cc1ccc(C(F)(F)F)cc1)C1CC1 [compound 124] |
| < 5.00 | < 5.00 | < 5.00 | CN(C)CCN(Cc1ccccc1)C(=O)c1cnc(N2CCOCC2)nc1-c1ccccc1F [compound 28] |
| < 5.00 | 5.00 to 5.70 | < 5.00 | COc1cccc(N(C(=O)c2cnc(N3CCC4CCCCC4C3)nc2-c2ccccc2F)C2CCC2)c1 (stereo not drawn) [compound 65] |
| 5.00 to 5.70 | > 5.70 | 5.00 to 5.70 | CC(C)N(Cc1ccccc1)C(=O)c1cnc(N2CCSCC2)nc1-c1ccccc1F [compound 98] |
| < 5.00 | 5.00 to 5.70 | 5.00 to 5.70 | CC(C)N(C(=O)c1cnc(N2CCC3CCCCC3C2)nc1-c1ccccc1F)c1ccccc1 (stereo not drawn) [compound 105] |
| < 5.00 | 5.00 to 5.70 | 5.00 to 5.70 | COc1cccc(N(C(=O)c2cnc(N3CCCCC3)nc2-c2ccccc2F)C(C)C)c1 [compound 133] |
| < 5.00 | < 5.00 | < 5.00 | CC(C)N(Cc1ccccc1)C(=O)c1cnc(Nc2ccc(Cl)cc2)nc1-c1ccccc1F [compound 207] |
| < 5.00 | 5.00 to 5.70 | < 5.00 | Cc1cccc(CN(C(=O)c2cnc(N3CCOCC3)nc2-c2ccccc2F)C2CC2)c1 [compound 163] |
| < 5.00 | < 5.00 | < 5.00 | COc1cccc(N(C(=O)c2cnc(N3CCOCC3)nc2-c2ccccc2F)C2CC2)c1 [compound 183] |
| < 5.00 | 5.00 to 5.70 | 5.00 to 5.70 | O=C(c1cnc(N2CCCCC2)nc1-c1ccccc1F)N(Cc1ccccc1)C1CCCC1 [compound 136] |
| < 5.00 | < 5.00 | < 5.00 | CC(C)N(C(=O)c1cnc(N2CCOCC2)nc1-c1ccccc1F)c1cccc2ccccc12 [compound 76] |
| < 5.00 | 5.00 to 5.70 | 5.00 to 5.70 | CC(C)N(Cc1ccccc1)C(=O)c1cnc(Nc2ccc3c(c2)OCO3)nc1-c1ccccc1F [compound 51] |
| < 5.00 | 5.00 to 5.70 | 5.00 to 5.70 | O=C(c1cnc(N2CCCCC2)nc1-c1ccccc1F)N(Cc1ccc2c(c1)CCO2)C1CC1 [compound 77] |
| < 5.00 | 5.00 to 5.70 | < 5.00 | Cc1nc(N2CCOCC2)nc(-c2ccccc2F)c1C(=O)N(Cc1ccccc1)C(C)C [compound 13] |
| < 5.00 | < 5.00 | < 5.00 | O=C(c1cnc(N2CCOCC2)nc1-c1ccccc1F)N1CCCC(c2ccc(F)cc2)C1 (stereo not drawn) [compound 191] |
| < 5.00 | 5.00 to 5.70 | < 5.00 | O=C(c1cnc(N2CCCCC2)nc1-c1ccccc1F)N(Cc1cccc(-c2ccncc2)c1)C1CC1 [compound 14] |
| 5.00 to 5.70 | > 5.70 | 5.00 to 5.70 | CC(C)N(Cc1ccccc1)C(=O)c1cnc(N2CCCCC2)nc1-c1ccccc1F [compound 117] |
| < 5.00 | 5.00 to 5.70 | < 5.00 | CC(C)N(Cc1ccc(N2CCCC2)cc1)C(=O)c1cnc(N2CCCCC2)nc1-c1ccccc1F [compound 50] |
| < 5.00 | 5.00 to 5.70 | 5.00 to 5.70 | CC(C)N(C(=O)c1cnc(N2CCSCC2)nc1-c1ccccc1F)c1ccccc1 [compound 201] |
| < 5.00 | 5.00 to 5.70 | 5.00 to 5.70 | CC(C)N(C(=O)c1cnc(N2CCCCC2)nc1-c1ccccc1Cl)c1cccc(C#N)c1 [compound 101] |
| < 5.00 | < 5.00 | < 5.00 | O=C(NC(CN1CCCC1)c1ccccc1)c1cnc(N2CCOCC2)nc1-c1ccccc1F (stereo not drawn) [compound 37] |
| < 5.00 | 5.00 to 5.70 | < 5.00 | CC(C)N(C(=O)c1cnc(N2CCCCC2)nc1-c1ccccc1Cl)C1CCSC1 (stereo not drawn) [compound 155] |

| pIC50 [1] | pIC50 [2] | pIC50 [3] | Structure (SMILES) |
| --- | --- | --- | --- |
| < 5.00 | < 5.00 | < 5.00 | COc1cccc(N(C(=O)c2c(C)nc(N3CCOCC3)nc2-c2ccccc2F)C(C)C)c1 [compound 21] |
| < 5.00 | < 5.00 | 5.00 to 5.70 | COc1cccc(N(C(=O)c2cnc(N3CCOCC3)nc2-c2ccccc2F)C2CCCC2)c1 [compound 169] |
| < 5.00 | 5.00 to 5.70 | 5.00 to 5.70 | O=C(c1cnc(N2CCOCC2)nc1-c1ccccc1F)N(Cc1ccccc1)C1CC1 [compound 100] |
| < 5.00 | > 5.70 | < 5.00 | O=C(c1cnc(N2CCC3CCCCC3C2)nc1-c1ccccc1F)N(Cc1cccc(-c2ccncc2)c1)C1CC1 (stereo not drawn) [compound 114] |
| < 5.00 | 5.00 to 5.70 | < 5.00 | COc1ccc(N(C(=O)c2cnc(N3CCOCC3)nc2-c2ccccc2F)C(C)C)cc1 [compound 185] |
| < 5.00 | 5.00 to 5.70 | < 5.00 | CC(C)N(C(=O)c1cnc(N2CCOCC2)nc1-c1ccccc1F)c1ccccc1 [compound 88] |
| < 5.00 | > 5.70 | 5.00 to 5.70 | CC(C)N(C(=O)c1cnc(N2CCCCC2)nc1-c1ccccc1F)c1ccc2c(c1)OCO2 [compound 70] |
| < 5.00 | < 5.00 | < 5.00 | CC(C)N(Cc1ccccc1)C(=O)c1cnc(Nc2cccc(C(N)=O)c2)nc1-c1ccccc1F [compound 73] |
| 5.00 to 5.70 | > 5.70 | 5.00 to 5.70 | C=CCN(CC=C)c1ncc(C(=O)N(Cc2ccccc2)C(C)C)c(-c2ccccc2F)n1 [compound 156] |
| < 5.00 | 5.00 to 5.70 | 5.00 to 5.70 | CC(C)N(C(=O)c1cnc(N2CCCCC2)nc1-c1ccccc1F)c1cccc([N+](=O)[O-])c1 [compound 140] |
| < 5.00 | < 5.00 | 5.00 to 5.70 | CCC(COC)N(Cc1ccccc1)C(=O)c1c(C)nc(N2CCOCC2)nc1-c1ccccc1F (stereo not drawn) [compound 49] |
| < 5.00 | < 5.00 | < 5.00 | CC(C)N(C(=O)c1cnc(N2CCOCC2)nc1-c1ccccc1F)C1CCSC1 (stereo not drawn) [compound 172] |
| < 5.00 | 5.00 to 5.70 | 5.00 to 5.70 | CC(C)N(C(=O)c1cnc(N2CCCCC2)nc1-c1ccccc1F)c1ccc2c(c1)OCCO2 [compound 171] |
| 5.00 to 5.70 | > 5.70 | 5.00 to 5.70 | CC(C)N(Cc1ccccc1)C(=O)c1cnc(N2CCOCC2)nc1-c1ccccc1Cl [compound 194, N-benzyl-4-(2-chlorophenyl)-N-isopropyl-2-morpholinopyrimidine-5-carboxamide] |
| < 5.00 | 5.00 to 5.70 | < 5.00 | CC(C)N(C(=O)c1cnc(N2CCC3CCCCC3C2)nc1-c1ccccc1F)C1CCSC1 (stereo not drawn) [compound 141] |
| < 5.00 | < 5.00 | < 5.00 | Cc1ccc(Nc2ncc(C(=O)N(Cc3ccccc3)C(C)C)c(-c3ccccc3F)n2)cc1 [compound 63] |
| < 5.00 | 5.00 to 5.70 | 5.00 to 5.70 | COc1cccc(N(C(=O)c2cnc(N3CCCCC3)nc2-c2ccccc2Cl)C(C)C)c1 [compound 175] |
| < 5.00 | 5.00 to 5.70 | 5.00 to 5.70 | CN1CCN(c2ncc(C(=O)N(Cc3ccccc3)C3CCC3)c(-c3ccccc3F)n2)CC1 [compound 180] |
| < 5.00 | < 5.00 | < 5.00 | CC1COc2ccccc2N1C(=O)c1cnc(N2CCOCC2)nc1-c1ccccc1F (stereo not drawn) [compound 84] |
| < 5.00 | < 5.00 | < 5.00 | CC(C)N(C(=O)c1cnc(N2CCOCC2)nc1-c1ccccc1F)c1ccc2c(c1)OCCO2 [compound 67] |
| < 5.00 | 5.00 to 5.70 | 5.00 to 5.70 | O=C(c1cnc(N2CCSCC2)nc1-c1ccccc1F)N(Cc1cccc(-c2ccncc2)c1)C1CC1 [compound 204] |
| < 5.00 | 5.00 to 5.70 | < 5.00 | CN1CCN(c2ncc(C(=O)N(Cc3ccc(C(F)(F)F)cc3)C3CC3)c(-c3ccccc3F)n2)CC1 [compound 126] |

| Structure (SMILES) | pIC50 [1] | pIC50 [2] | pIC50 [3] |
| --- | --- | --- | --- |
| COc1ccc(N(C(=O)c2cnc(N3CCC4CCCCC4C3)nc2-c2ccccc2F)C(C)C)cc1 (stereo not drawn) [compound 12] | < 5.00 | > 5.70 | < 5.00 |
| Cc1nc(N2CCOCC2)nc(-c2ccccc2F)c1C(=O)N(Cc1ccc(C(C)(C)C)cc1)C(C)C [compound 31] | < 5.00 | 5.00 to 5.70 | 5.00 to 5.70 |
